# Assay results as given in patent US7632830B2, “Lactam compounds and pharmaceutical use thereof” (Ajinomoto Co., Inc., priority 2000, dated 2009).
# Tested on: adipose cells of rats
# Assay: Evaluation of the sugar-transporting activity (2-[14C(U)]-deoxy-D-glucose incorporation)
# Type: cell-based
# Details: concentration having a reinforcing effect corresponding to 50% of the reinforcing effect of insulin (100%); rat adipose cells
# Description: After the decapitation and venesection of 6 male Wistar rats (body weight: 150 to 200 g), an incision was made in the abdomen of each rat to extract 6 g in total of epididymal adipose tissues. The tissues were finely cut into 2 mm×2 mm pieces in 6 ml of KRH (Krebs-Ringer Hepes, composition: 130 mM of sodium chloride, 4.7 mM of potassium chloride, 1.2 mM of potassium dihydrogenphosphate, 1.2 mM of magnesium sulfate, 1 mM of calcium chloride and 25 mM of Hepes, pH=7.6) containing 5% of BSA (bovine serum albumin). 24 mg of collagenase (type I) was added thereto and the digestion treatment was conducted for about 40 minutes to obtain about 6 ml of isolated adipose cells. The collagenase was removed by the buffer exchange. 2% BSA/KRH solution was added to the residue for the re-suspension to obtain 45 ml of an adipose cell suspension.
# The sugar-transporting activity of the compounds of the present invention was evaluated with reference to a method described in a literature [Annual Review of Biochemistry, Vol. 55, p. 1059 (1986)]. In the test, 200 μl of the adipose cell suspension was poured in each polystyrene test tube, 100 μl of the solution of the test substance (by dilution of 10 mg/ml substance dimethyl sulfoxide solution with KRH) was added thereto, and the obtained mixture was shaken and then cultured at 37° C. for 30 minutes.
# The sugar-transporting activity was evaluated by measuring the quantity of 2-[^14C(U)]-deoxy-D-glucose incorporated per a unit time. Namely, 2-[^14C(U)]-deoxy-D-glucose was added to the adipose cell suspension after the pre-culture (the final concentration: 0.5 μCi/sample). 5 minutes after, cytochalasin B (final concentration: 10 μM) was added to the mixture to terminate the sugar transportation. After forming a dinonyl phthalate layer, the obtained mixture was centrifuged to separate the adipose cells from the buffer. The quantity of 2-[^14C(U)]-deoxy-D-glucose contained in the adipose cell layer was determined with a liquid scintillation counter to determine the quantity of the incorporated sugar. In this evaluation system, when insulin (100 nM) having the effect of increasing the sugar transportation was used, the effect was about 7 times as high as that obtained in the insulin-free control group.
# The results of the evaluation of the sugar-transporting activity obtained by using 100 μg/ml of each compound of the present invention are shown in Table 6. The sugar transporting activity in Table 6 was evaluated on the basis of the reinforcing effect of insulin (100 nM). […] The symbols in Table 6 are as follows: • No: Example No., and • A: sugar transporting activity.
# The results of the evaluation of the sugar-transporting activity obtained by using each compound of the present invention are shown in Table 7. The sugar transporting activity in Table 7 was determined in terms of the concentration (EC50: μg/ml) of a test compound, having a reinforcing effect corresponding to 50% on the basis of the reinforcing effect of insulin having a reinforcing effect of 100%.
row,SMILES,A: sugar transporting activity (EC50) [µg/mL]
1,CC(=O)N1[C@@H]2CCCC[C@H]2NC2=C(C(=O)NC2)[C@H]1c1ccccc1O [Example 105],3.7
2,CCC(=O)N1[C@@H]2CCCC[C@H]2NC2=C(C(=O)NC2)[C@H]1c1ccc(F)cc1OC [Example 107],0.82
3,CCOCC(=O)N1[C@@H]2CCCC[C@H]2NC2=C(C(=O)NC2)[C@H]1c1ccc(F)cc1OC [Example 108],7.8
4,COc1cc(F)ccc1[C@@H]1C2=C(CNC2=O)N[C@@H]2CCCC[C@H]2N1C(C)=O [Example 109],8
5,COc1cc(Cl)ccc1[C@@H]1C2=C(CNC2=O)N[C@@H]2CCCC[C@H]2N1C(C)=O [Example 110],6
6,COc1ccc(F)cc1[C@@H]1C2=C(CNC2=O)N[C@@H]2CCCC[C@H]2N1C(C)=O [Example 113],10
7,COc1cccc([C@@H]2C3=C(CNC3=O)N[C@@H]3CCCC[C@H]3N2C(C)=O)c1OC [Example 114],12
8,COc1ccc([C@@H]2C3=C(CNC3=O)N[C@@H]3CCCC[C@H]3N2C(C)=O)c(OC)c1 [Example 115],10
9,Cc1ccccc1[C@@H]1C2=C(CNC2=O)N[C@@H]2CCCC[C@H]2N1C(=O)C(F)(F)F [Example 117],6
10,CCC(=O)N1[C@@H]2CCCC[C@H]2NC2=C(C(=O)NC2)[C@H]1c1ccccc1C [Example 118],2
11,CCOCC(=O)N1[C@@H]2CCCC[C@H]2NC2=C(C(=O)NC2)[C@H]1c1ccccc1C [Example 119],4
12,CC(=O)OCC(=O)N1[C@@H]2CCCC[C@H]2NC2=C(C(=O)NC2)[C@H]1c1ccccc1C [Example 120],8
13,Cc1ccccc1[C@@H]1C2=C(CNC2=O)N[C@@H]2CCCC[C@H]2N1C(=O)CO [Example 121],2.5
14,COCC(=O)N1[C@@H]2CCCC[C@H]2NC2=C(C(=O)NC2)[C@H]1c1ccccc1C [Example 122],6
15,CC(=O)N1[C@@H]2CCCC[C@H]2NC2=C(C(=O)NC2)[C@H]1c1ccccc1C [Example 123],5
16,CCOC(=O)N1[C@@H]2CCCC[C@H]2NC2=C(C(=O)NC2)[C@H]1c1ccccc1C [Example 124],7
17,CCCC(=O)N1[C@@H]2CCCC[C@H]2NC2=C(C(=O)NC2)[C@H]1c1ccccc1CC [Example 126],5
18,CCC(=O)N1[C@@H]2CCCC[C@H]2NC2=C(C(=O)NC2)[C@H]1c1ccccc1CC [Example 127],2.2
19,CCOCC(=O)N1[C@@H]2CCCC[C@H]2NC2=C(C(=O)NC2)[C@H]1c1ccccc1CC [Example 129],5.4
20,CCc1ccccc1[C@@H]1C2=C(CNC2=O)N[C@@H]2CCCC[C@H]2N1C(=O)COC [Example 130],6
21,CCc1ccccc1[C@@H]1C2=C(CNC2=O)N[C@@H]2CCCC[C@H]2N1C(C)=O [Example 131],4
22,CCc1ccccc1[C@@H]1C2=C(CNC2=O)N[C@@H]2CCCC[C@H]2N1C(=O)OC [Example 132],4
23,O=C1NCC2=C1[C@@H](c1ccccc1Br)N(C(=O)CC(F)(F)F)[C@@H]1CCCC[C@H]1N2 [Example 134],0.5
24,CCC(=O)N1[C@@H]2CCCC[C@H]2NC2=C(C(=O)NC2)[C@H]1c1ccccc1Br [Example 135],1.5

row,SMILES,A: sugar transporting activity (EC50) [µg/mL]
1,COC(=O)CC(=O)N1[C@@H]2CCCC[C@H]2NC2=C(C(=O)NC2)[C@H]1c1ccccc1Br [Example 136],1.5
2,CCOCC(=O)N1[C@@H]2CCCC[C@H]2NC2=C(C(=O)NC2)[C@H]1c1ccccc1Br [Example 137],8.6
3,COCC(=O)N1[C@@H]2CCCC[C@H]2NC2=C(C(=O)NC2)[C@H]1c1ccccc1Br [Example 138],6
4,CC(=O)N1[C@@H]2CCCC[C@H]2NC2=C(C(=O)NC2)[C@H]1c1ccccc1Br [Example 139],6
5,CCC(=O)N1[C@@H]2CCCC[C@H]2NC2=C(C(=O)NC2)[C@H]1c1ccccc1Cl [Example 141],3
6,CCCC(=O)N1[C@@H]2CCCC[C@H]2NC2=C(C(=O)NC2)[C@H]1c1ccccc1Cl [Example 142],4
7,O=C1NCC2=C1[C@@H](c1ccccc1Cl)N(C(=O)CC(F)(F)F)[C@@H]1CCCC[C@H]1N2 [Example 143],0.5
8,COCC(=O)N1[C@@H]2CCCC[C@H]2NC2=C(C(=O)NC2)[C@H]1c1ccccc1Cl [Example 144],5
9,CCOCC(=O)N1[C@@H]2CCCC[C@H]2NC2=C(C(=O)NC2)[C@H]1c1ccccc1Cl [Example 145],10.7
10,COC(=O)CC(=O)N1[C@@H]2CCCC[C@H]2NC2=C(C(=O)NC2)[C@H]1c1ccccc1Cl [Example 146],2
11,COC(=O)N1[C@@H]2CCCC[C@H]2NC2=C(C(=O)NC2)[C@H]1c1ccccc1Cl [Example 147],2.4
12,CCC(=O)N1[C@@H]2CCCC[C@H]2NC2=C(C(=O)NC2)[C@H]1c1ccccc1F [Example 149],2
13,CCOCC(=O)N1[C@@H]2CCCC[C@H]2NC2=C(C(=O)NC2)[C@H]1c1ccccc1F [Example 150],2
14,COC(=O)N1[C@@H]2CCCC[C@H]2NC2=C(C(=O)NC2)[C@H]1c1ccccc1F [Example 151],2
15,CCC(=O)N1[C@@H]2CCCC[C@H]2NC2=C(C(=O)NC2)[C@H]1c1ccccc1 [Example 154],1.5
16,CCOCC(=O)N1[C@@H]2CCCC[C@H]2NC2=C(C(=O)NC2)[C@H]1c1ccccc1 [Example 155],2.7
17,COC(=O)N1[C@@H]2CCCC[C@H]2NC2=C(C(=O)NC2)[C@H]1c1ccccc1 [Example 156],2
18,CC(=O)N1[C@@H]2CCCC[C@H]2NC2=C(C(=O)NC2)[C@H]1c1ccccc1N [Example 158],12
19,COc1ccc([C@@H]2C3=C(CNC3=O)N[C@@H]3CCCC[C@H]3N2C(C)=O)cc1 [Example 160],4.4
20,CC(=O)N1[C@@H]2CCCC[C@H]2NC2=C(C(=O)NC2)[C@H]1c1ccc(Br)cc1 [Example 161],17
21,CCOCC(=O)N1[C@@H]2CCCC[C@H]2NC2=C(C(=O)NC2)[C@H]1c1ccc(Cl)cc1 [Example 163],6
22,CSc1ccccc1[C@@H]1C2=C(CNC2=O)N[C@@H]2CCCC[C@H]2N1C(=O)CO [Example 164],2
23,COc1ccccc1[C@@H]1C2=C(CNC2=O)N[C@@H]2CCCC[C@H]2N1C(=O)CCc1ncco1 [Example 166],0.064
24,CCOc1ccccc1[C@@H]1C2=C(CNC2=O)N[C@@H]2CCCC[C@H]2N1C(=O)CCc1ncco1 [Example 167],0.10
